Results as given in paper PMC8096218, “Global RNA profiles show target selectivity and physiological effects of peptide-delivered antisense antibiotics” (Nucleic Acids Research, 2021).
Where two headings read alike, the source gives them in different places. Where a SMILES comes first, the peptide text is derived from it.

Tested on: wild-type (wt) Salmonella enterica serovar Typhimurium strain SL1344
Protocol: MIC values were determined by broth microdilution according to standard protocols with a few modifications ([26]). An overnight bacterial cell culture, supplemented with the appropriate antibiotic when needed, was diluted 1:100 in fresh MHB and grown to OD600 0.5. The obtained culture was diluted to ∼10^5 cfu/ml or 10^6 cfu/ml, as indicated, in non-cation-adjusted MHB. Subsequently, 190 μl bacterial solution was dispensed into a 96-well plate (Thermo Fisher Scientific) along with 10 μl of a 20x PPNA, PNA or peptide working solution. Growth was monitored by measuring the OD at 600 nm every 20 min in a Synergy H1 plate reader (Biotek) with continuous double-orbital shaking (237 cpm) at 37°C for 24 h.

[1] = wild-type (wt) serovar Typhimurium strain SL1344, 24 h
[2] = Table 1, ∼10^5 cfu/ml, non-cation-adjusted MHB, 37°C, 24 h, lowest concentration with OD600 < 0.1

| Molecule | MIC [1] | MIC (Table 1, ∼10^5 cfu/ml, non-cation-adjusted MHB, 37°C, 24 h) | MIC [2] |
| --- | --- | --- | --- |
| CC(C)C[C@H](NC(=O)[C@H](CCCNC(=N)N)NC(=O)[C@@H](NC(=O)[C@@H]1CCCN1C(=O)[C@@H]1CCCN1C(=O)[C@@H]1CCCN1C(=O)[C@H](CC(C)C)NC(=O)[C@H](CCCNC(=N)N)NC(=O)[C@@H](NC(=O)[C@@H]1CCCN1C(=O)[C@@H]1CCCN1C(=O)[C@@H]1CCCN1C(=O)[C@H](CC(C)C)NC(=O)[C@H](CCCNC(=N)N)NC(=O)[C@@H](N)C(C)C)C(C)C)C(C)C)C(=O)N1CCC[C@H]1C(=O)N1CCC[C@H]1C(=O)N1CCC[C@H]1C(=O)O [SAP, reference compound] (H-VRLPPPVRLPPPVRLPPP-OH; N-terminus and C-terminus assumed) | >10 µM |  |  |
| RQIKIWFQNRRMKWKK [ANT-acpP-scr] |  |  | >10 µM |
| CC(C)C[C@H](NC(=O)[C@H](CCC(=O)O)NC(=O)[C@@H](NC(=O)[C@@H]1CCCN1C(=O)[C@@H]1CCCN1C(=O)[C@@H]1CCCN1C(=O)[C@H](CC(C)C)NC(=O)[C@H](CCC(=O)O)NC(=O)[C@@H](NC(=O)[C@@H]1CCCN1C(=O)[C@@H]1CCCN1C(=O)[C@@H]1CCCN1C(=O)[C@H](CC(C)C)NC(=O)[C@H](CCC(=O)O)NC(=O)[C@@H](N)C(C)C)C(C)C)C(C)C)C(=O)N1CCC[C@H]1C(=O)N1CCC[C@H]1C(=O)N1CCC[C@H]1C(=O)O [SAPE, reference compound] (H-VELPPPVELPPPVELPPP-OH; N-terminus and C-terminus assumed) | >10 µM |  |  |

Second part, the molecule after the results:

| MIC [1] | MIC (Table 1, ∼10^5 cfu/ml, non-cation-adjusted MHB, 37°C, 24 h) | MIC [2] | Molecule |
| --- | --- | --- | --- |
|  | 12 µg/mL | 3.3 µM | RQIKIWFQNRRMKWKK [ANT-acpP] |
|  |  | >10 µM | VRLPPPVRLPPPVRLPPP [SAP-acpP-scr] |
|  |  | >10 µM | VELPPPVELPPPVELPPP [SAPE-acpP-scr] |
